Counter-ions that a name gives are not always drawn. Like-named read-outs stand apart in the source and are kept apart here. One block for each compound: values may come before it.
Tests used:
[1] = Solubility in water; format: physicochemical; details: product as per the present invention
[2] = cited from earlier work; for Solubility in water: marketed/prior reported crystalline Form II, from EMEA scientific discussion of Zelboraf
[3] = Storage stability (morphology and physicochemical characteristics); details: Vemurafenib obtained as per the present process
[4] = European assessment report of Zelboraf; low solubility and permeability; cited from earlier work

Solubility in water [1]: >1 µg/mL
solubility ([1]; water): > 1 µg/mL
Compound: CCCS(=O)(=O)Nc1ccc(F)c(C(=O)c2c[nH]c3ncc(-c4ccc(Cl)cc4)cc23)c1F [Form-SVM, propane-1-sulfonic acid-{3-[5-(4-chlorophenyl)-1H-pyrrolo[2,3-b]pyridine-3-carbonyl]-2,4-difluoro-phenyl}-amide]

Compound: CCCS(=O)(=O)Nc1ccc(F)c(C(=O)c2c[nH]c3ncc(-c4ccc(Cl)cc4)cc23)c1F [Form-II, propane-1-sulfonic acid-{3-[5-(4-chlorophenyl)-1H-pyrrolo[2,3-b]pyridine-3-carbonyl]-2,4-difluoro-phenyl}-amide]
Solubility in water [2]: <0.1 µg/mL
Solubility in water ([2]; listed as Crystalline Vemurafenib (Form II)): < 0.1 µg/mL

Solubility in water [1]: ≥ 1 µg/mL
Compound: CCCS(=O)(=O)Nc1ccc(F)c(C(=O)c2c[nH]c3ncc(-c4ccc(Cl)cc4)cc23)c1F [Vemurafenib trifluoro methane sulfonic acid salt]

Stable to handle and store without significant change in morphology and physicochemical characteristics [3]: more than 6 months
Compound: CCCS(=O)(=O)Nc1ccc(F)c(C(=O)c2c[nH]c3ncc(-c4ccc(Cl)cc4)cc23)c1F [Vemurafenib, propane-1-sulfonic acid-{3-[5-(4-chlorophenyl)-1H-pyrrolo[2,3-b]pyridine-3-carbonyl]-2,4-difluoro-phenyl}-amide]
Biopharmaceutics Classification System class [4]: Class IV
Solubility in aqueous media ([2]; background description of the drug substance): practically insoluble
Solubility in water [2]: < 0.1 µg/mL

Reference: US10414764B2, “Substantially pure vemurafenib and its salts” (SHILPA MEDICARE LIMITED, priority 2014, dated 2019)
